Test results taken from ChEMBL document CHEMBL4680144, “N-thiadiazole-4-hydroxy-2-quinolone-3-carboxamides bearing heteroaromatic rings as novel antibacterial agents: Design, synthesis, biological evaluation and target identification” (Eur J Med Chem, 2020).
≈ marks a conversion by molar mass, not a printed value. Calls of active or inactive are those of the source. The calls are words filed in the database; no cut-off is given here.

Legend:
Enterococcus faecalis [1] = assay: Antibacterial activity against Enterococcus faecalis clinical isolate 15-1 assessed as inhibition of bacterial growth incubated for 18 to 24 hrs by broth microdilution method; type: functional; conditions: time 18-24 hrs
Staphylococcus aureus [2] = assay: Potency index, ratio of vancomycin MIC to test compound MIC for antibacterial activity against methicillin resistant and vancomycin-intermediate sensitive Staphylococcus aureus ATCC 700699 assessed as inhibition of bacterial growth incubated for 18 to 24 hrs by broth microdilution method; type: functional; conditions: time 18-24 hrs
Staphylococcus aureus [3] = assay: Potency index, ratio of vancomycin MIC to test compound MIC for antibacterial activity against methicillin-resistant Staphylococcus aureus clinical isolate 15-8 assessed as inhibition of bacterial growth incubated for 18 to 24 hrs by broth microdilution method; type: functional; conditions: time 18-24 hrs
[4] = Protein binding in mouse plasma at 5 uM incubated for 5 hrs by equilibrium dialysis based LC-MS/MS analysis; type: ADME, cell-free; conditions: read-out: PPB
[5] = test system: Staphylococcus epidermidis; assay: Potency index, ratio of vancomycin MIC to test compound MIC for antibacterial activity against methicillin-sensitive Staphylococcus epidermidis clinical isolate 15-4 assessed as inhibition of bacterial growth incubated for 18 to 24 hrs by broth microdilution method; type: functional; conditions: time 18-24 hrs
Staphylococcus aureus [6] = assay: Antibacterial activity against wild type methicillin-sensitive Staphylococcus aureus ATCC 29213 assessed as inhibition of bacterial growth incubated for 18 to 24 hrs by broth microdilution method; type: functional; conditions: time 18-24 hrs
[7] = Toxicity in Kunming mouse assessed as death at 30 mg/kg, po; type: organism-based; conditions: in vivo
Staphylococcus aureus [8] = assay: Antibacterial activity against methicillin-resistant Staphylococcus aureus clinical isolate 15-1 assessed as inhibition of bacterial growth incubated for 18 to 24 hrs by broth microdilution method; type: functional; conditions: time 18-24 hrs
Enterococcus faecium [9] = assay: Potency index, ratio of vancomycin MIC to test compound MIC for antibacterial activity against Enterococcus faecium clinical isolate 15-1 assessed as inhibition of bacterial growth incubated for 18 to 24 hrs by broth microdilution method; type: functional; conditions: time 18-24 hrs
Staphylococcus aureus [10] = assay: Potency index, ratio of vancomycin MIC to test compound MIC for antibacterial activity against methicillin-resistant Staphylococcus aureus clinical isolate 15-9 assessed as inhibition of bacterial growth incubated for 18 to 24 hrs by broth microdilution method; type: functional; conditions: time 18-24 hrs
Staphylococcus aureus [11] = assay: Potency index, ratio of vancomycin MIC to test compound MIC for antibacterial activity against methicillin-resistant Staphylococcus aureus clinical isolate 15-2 assessed as inhibition of bacterial growth incubated for 18 to 24 hrs by broth microdilution method; type: functional; conditions: time 18-24 hrs
Staphylococcus aureus [12] = assay: (§1) In vivo antibacterial activity against methicillin resistant Staphylococcus aureus clinical isolate 15-1 infected in kunming mouse assessed as animal survival rate at 1 mg/kg, po administered 6 hrs prior to bacterial infection and at 0 and 6 hrs post infection and measured for 7 days (reference value: 12.5 %); type: functional; conditions: 15-1, po, 168 h, time 7 day
Staphylococcus aureus [13] = assay: Bactericidal activity against methicillin-resistant Staphylococcus aureus clinical isolate 15-1 assessed as reduction in log10CFU at 1 to 2 times MIC measured after 24 hrs by time kill kinetics analysis; type: functional, organism-based
Staphylococcus aureus [14] = assay: Antibacterial activity against methicillin-resistant Staphylococcus aureus clinical isolate 15-1 assessed as reduction in bacterial growth treated for 20 passages; type: functional; conditions: time 24 hrs
[15] = Selectivity index, ratio of IC50 for human HUVEC cells to MIC for methicillin-resistant Staphylococcus aureus; type: toxicity
HepG2 = assay: Cytotoxicity against human HepG2 cells assessed as reduction in cell viability after 72 hrs by sulforhodamine B assay; type: cell-based; conditions: HepG2, 72 h
Enterococcus faecalis [16] = assay: Antibacterial activity against vancomycin-resistant Enterococcus faecalis ATCC 51299 assessed as inhibition of bacterial growth incubated for 18 to 24 hrs by broth microdilution method; type: functional; conditions: time 18-24 hrs
Staphylococcus aureus [17] = assay: as §1, with “at 0.33” for “at 1”; type: functional; conditions: 15-1, po, 168 h, time 7 day
Enterococcus faecium [18] = assay: Antibacterial activity against Enterococcus faecium clinical isolate 15-2 assessed as inhibition of bacterial growth incubated for 18 to 24 hrs by broth microdilution method; type: functional; conditions: time 18-24 hrs
[19] = MRTlast in Kunming mouse at 10 mg/kg, po measured upto 72 hrs by HPLC analysis; type: ADME, organism-based; conditions: in vivo
Staphylococcus aureus [20] = assay: Potency index, ratio of vancomycin MIC to test compound MIC for antibacterial activity against methicillin-resistant Staphylococcus aureus clinical isolate 15-1 assessed as inhibition of bacterial growth incubated for 18 to 24 hrs by broth microdilution method; type: functional; conditions: time 18-24 hrs
[21] = Selectivity index, ratio of IC50 for human HepG2 cells to MIC for methicillin-resistant Staphylococcus aureus; type: toxicity
[22] = Tmax in Kunming mouse at 10 mg/kg, po measured upto 72 hrs by HPLC analysis; type: ADME, organism-based; conditions: in vivo
[23] = AUCinfinity in Kunming mouse at 10 mg/kg, po by HPLC analysis; type: ADME, organism-based; design: time infinity, route oral, dose 10 mg/kg; conditions: in vivo
HUVEC = assay: Cytotoxicity against HUVEC assessed as reduction in cell viability after 72 hrs by sulforhodamine B assay; type: cell-based; conditions: Homo sapiens
Staphylococcus aureus [24] = assay: Bactericidal activity against methicillin-resistant Staphylococcus aureus clinical isolate 15-1 assessed as reduction in log10CFU at 4 times MIC measured over 24 hrs by time kill kinetics analysis; type: functional
Enterococcus faecalis [25] = assay: Potency index, ratio of vancomycin MIC to test compound MIC for antibacterial activity against Enterococcus faecalis clinical isolate 15-2 assessed as inhibition of bacterial growth incubated for 18 to 24 hrs by broth microdilution method; type: functional; conditions: time 18-24 hrs
Staphylococcus aureus [26] = assay: Antibacterial activity against methicillin-resistant Staphylococcus aureus clinical isolate 15-8 assessed as inhibition of bacterial growth incubated for 18 to 24 hrs by broth microdilution method; type: functional; conditions: time 18-24 hrs
[27] = Inhibition of Staphylococcus aureus Gyrase B using linear pBR322 DNA as substrate incubated for 30 mins in presence of ATP by ADP-Glo assay
[28] = Metabolic stability in mouse plasma assessed as half life measured upto 120 mins by LC-MS/MS analysis; type: ADME, cell-free
[29] = Metabolic stability in mouse liver microsomes assessed as half life preincubated for 5 mins followed by NADPH addition and measured up to 60 mins by LC-MS/MS analysis; type: ADME, Microsome; conditions: time 65 min
Staphylococcus aureus [30] = assay: Potency index, ratio of vancomycin MIC to test compound MIC for antibacterial activity against methicillin-resistant Staphylococcus aureus clinical isolate 15-3 assessed as inhibition of bacterial growth incubated for 18 to 24 hrs by broth microdilution method; type: functional; conditions: time 18-24 hrs
Enterococcus faecium [31] = assay: Antibacterial activity against Enterococcus faecium clinical isolate 15-1 assessed as inhibition of bacterial growth incubated for 18 to 24 hrs by broth microdilution method; type: functional; conditions: time 18-24 hrs
Enterococcus faecium [32] = assay: Potency index, ratio of vancomycin MIC to test compound MIC for antibacterial activity against Enterococcus faecium clinical isolate 15-2 assessed as inhibition of bacterial growth incubated for 18 to 24 hrs by broth microdilution method; type: functional; conditions: time 18-24 hrs
[33] = test system: Staphylococcus epidermidis; assay: Potency index, ratio of vancomycin MIC to test compound MIC for antibacterial activity against methicillin-sensitive Staphylococcus epidermidis clinical isolate 15-3 assessed as inhibition of bacterial growth incubated for 18 to 24 hrs by broth microdilution method; type: functional; conditions: time 18-24 hrs
[34] = AUClast in Kunming mouse at 10 mg/kg, po measured upto 72 hrs by HPLC analysis; type: ADME, organism-based; design: route oral, dose 10 mg/kg, time <=72; conditions: in vivo
Staphylococcus aureus [35] = assay: Bactericidal activity against methicillin-resistant Staphylococcus aureus clinical isolate 15-1 assessed as reduction in log10CFU at 8 times MIC measured over 24 hrs by time kill kinetics analysis; type: functional
Enterococcus faecalis [36] = assay: Antibacterial activity against vancomycin-resistant Enterococcus faecalis ATCC 51575 assessed as inhibition of bacterial growth incubated for 18 to 24 hrs by broth microdilution method; type: functional; conditions: time 18-24 hrs

Molecule `CCn1c(=O)c(C(=O)Nc2nnc(-c3nccs3)s2)c(O)c2ccccc21` has an MIC (Enterococcus faecalis [1]) of 0.5 µg/mL (≈ 1.25 µM), a Ratio (Staphylococcus aureus [2]) of 2 and a Ratio (Staphylococcus aureus [3]) of 2. For the same molecule, the fraction unbound at 5 h, 5 µM [4] was 0.001, the Ratio [5] was 2 and the MIC (Staphylococcus aureus [6]) was 0.1 µg/mL (≈ 0.25 µM). The Activity [7] was “Non-Toxic”, the MIC (Staphylococcus aureus [8]) was 0.5 µg/mL (≈ 1.25 µM) and the Ratio (Enterococcus faecium [9]) was 2. It also gave a Ratio (Staphylococcus aureus [10]) of 2, a Ratio (Staphylococcus aureus [11]) of 2 and a survival at 1 mg/kg (Staphylococcus aureus [12]) of 37.5%. The Activity (Staphylococcus aureus [13]) was “Active”, the MIC (Staphylococcus aureus [14]) was 0.5 µg/mL (≈ 1.25 µM) and the selectivity ratio [15] was 77.6. For the same molecule, the IC50 (HepG2) was 55.3 µM, the MIC (Enterococcus faecalis [16]) was 0.5 µg/mL (≈ 1.25 µM) and the survival at 0.33 mg/kg (Staphylococcus aureus [17]) was 25%. It also gave an MIC (Enterococcus faecium [18]) of 1 µg/mL (≈ 2.5 µM), an MRT last at 72 h [19] of 2.7 h and a Ratio (Staphylococcus aureus [20]) of 2. For the same molecule, the selectivity ratio [21] was 111, the Tmax [22] was 1 h and the AUC(0-inf) [23] was 2620 ng·h/mL. The IC50 (HUVEC) was 38.8 µM, the Activity (Staphylococcus aureus [24]) was over 3 log10CFU/ml and the Ratio (Enterococcus faecalis [25]) was 2. The MIC (Staphylococcus aureus [26]) was 0.5 µg/mL (≈ 1.25 µM), the IC50 [27] was 0.15 µM and the half-life [28] was 8.39 h. The half-life [29] was 0.593 h, the Ratio (Staphylococcus aureus [30]) was 2 and the MIC (Enterococcus faecium [31]) was 1 µg/mL (≈ 2.5 µM). The Ratio (Enterococcus faecium [32]) was 2, the Ratio [33] was 2 and the AUC(0-t) at 72 h [34] was 2540 ng·h/mL. For the same molecule, the Activity (Staphylococcus aureus [35]) was 3 log10CFU/ml and the MIC (Enterococcus faecalis [36]) was 0.5 µg/mL (≈ 1.25 µM).
